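The compound was tested at five concentrations on cells cultured in 96-well plates, with a 48-hour exposure period. GI50 = concentration required for 50% inhibition of growth. TGI: total growth inhibition.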
What was measured:
Assay in all cases: growth of human tumour cells (NCI), 48 h
SK-MEL-2 melanoma = tested on: SK-MEL-2 melanoma
EKVX NSCLC = tested on: EKVX NSCLC
HS 578T breast = tested on: HS 578T breast
SN12C renal = tested on: SN12C renal
U251 CNS = tested on: U251 CNS
SF-539 CNS = tested on: SF-539 CNS
UO-31 renal = tested on: UO-31 renal
KM12 colon = tested on: KM12 colon
MALME-3M melanoma = tested on: MALME-3M melanoma
HL-60(TB) leukemia = tested on: HL-60(TB) leukemia
DU-145 prostate = tested on: DU-145 prostate
UACC-62 melanoma = tested on: UACC-62 melanoma
RPMI-8226 leukemia = tested on: RPMI-8226 leukemia
NCI/ADR-RES ovarian = tested on: NCI/ADR-RES ovarian
HT29 colon = tested on: HT29 colon
NCI-H23 lung = tested on: NCI-H23 lung
OVCAR-8 ovarian = tested on: OVCAR-8 ovarian
SNB-19 CNS = tested on: SNB-19 CNS
ACHN renal = tested on: ACHN renal
LOX IMVI melanoma = tested on: LOX IMVI melanoma
TK-10 renal = tested on: TK-10 renal
T-47D breast = tested on: T-47D breast
HCT-15 colon = tested on: HCT-15 colon
MDA-MB-231 breast = tested on: MDA-MB-231 breast
A549 NSCLC = tested on: A549 NSCLC
CCRF-CEM leukemia = tested on: CCRF-CEM leukemia
786-0 renal = tested on: 786-0 renal
OVCAR-3 ovarian = tested on: OVCAR-3 ovarian
UACC-257 melanoma = tested on: UACC-257 melanoma

Work on `CN1CCN(Cc2ccc(NC(=O)c3cncc(C#Cc4cnc5ccc(OC6CCOCC6)nn45)c3)cc2C(F)(F)F)CC1` yielded a GI50 (SK-MEL-2 melanoma) of 90.6 nM, a TGI (SK-MEL-2 melanoma) of 199 nM and a GI50 (EKVX NSCLC) of 173 nM. For the same molecule, the TGI (EKVX NSCLC) was 805 nM, the GI50 (HS 578T breast) was 105 nM and the TGI (HS 578T breast) was 648 nM. For the same molecule, the GI50 (SN12C renal) was 52.9 nM, the TGI (SN12C renal) was 408 nM and the GI50 (U251 CNS) was 142 nM. It also gave a TGI (U251 CNS) of 527 nM, a GI50 (SF-539 CNS) of 39.3 nM and a TGI (SF-539 CNS) of 526 nM. It also gave a GI50 (UO-31 renal) of 158 nM, a TGI (UO-31 renal) of 729 nM and a GI50 (KM12 colon) of 5 nM. For the same molecule, the TGI (KM12 colon) was 305 nM, the GI50 (MALME-3M melanoma) was 69.4 nM and the TGI (MALME-3M melanoma) was 382 nM. The GI50 (HL-60(TB) leukemia) was 57.5 nM, the TGI (HL-60(TB) leukemia) was 285 nM and the GI50 (DU-145 prostate) was 141 nM. It also gave a TGI (DU-145 prostate) of 769 nM, a GI50 (UACC-62 melanoma) of 127 nM and a TGI (UACC-62 melanoma) of 732 nM. The GI50 (RPMI-8226 leukemia) was 183 nM, the TGI (RPMI-8226 leukemia) was 973 nM and the GI50 (NCI/ADR-RES ovarian) was 348 nM. It also gave a TGI (NCI/ADR-RES ovarian) of 1770 nM, a GI50 (HT29 colon) of 73.2 nM and a TGI (HT29 colon) of 317 nM. For the same molecule, the GI50 (NCI-H23 lung) was 120 nM, the TGI (NCI-H23 lung) was 474 nM and the GI50 (OVCAR-8 ovarian) was 132 nM. For the same molecule, the TGI (OVCAR-8 ovarian) was 604 nM, the GI50 (SNB-19 CNS) was 221 nM and the TGI (SNB-19 CNS) was 1640 nM. For the same molecule, the GI50 (ACHN renal) was 105 nM, the TGI (ACHN renal) was 1750 nM and the GI50 (LOX IMVI melanoma) was 71.9 nM. It also gave a TGI (LOX IMVI melanoma) of 420 nM, a GI50 (TK-10 renal) of 90.7 nM and a TGI (TK-10 renal) of 227 nM. For the same molecule, the GI50 (T-47D breast) was 543 nM, the TGI (T-47D breast) was 2420 nM and the GI50 (HCT-15 colon) was 95.3 nM. For the same molecule, the TGI (HCT-15 colon) was 324 nM, the GI50 (MDA-MB-231 breast) was 38 nM and the TGI (MDA-MB-231 breast) was 176 nM. It also gave a GI50 (A549 NSCLC) of 90.9 nM, a TGI (A549 NSCLC) of 562 nM and a GI50 (CCRF-CEM leukemia) of 11.3 nM. For the same molecule, the TGI (CCRF-CEM leukemia) was 3130 nM, the GI50 (786-0 renal) was 244 nM and the TGI (786-0 renal) was 890 nM. The GI50 (OVCAR-3 ovarian) was 123 nM, the TGI (OVCAR-3 ovarian) was 998 nM and the GI50 (UACC-257 melanoma) was 215 nM. The TGI (UACC-257 melanoma) was 780 nM.

Reference: PubChem BioAssay (NCI)
